Test results reported in PubChem BioAssay AID1963968 (Molecular Pharmacology Branch, DTP, NCI, 2024).
pIC50: −log10 of the molar value.

System: 945468-187-T-J3-PDC spheroids with HUVEC/MSC, viability
Test: Anticancer human tumor 945468-187-T-J3-PDC patient-derived rectal carcinoma cell line growth inhibition [PI3K]
Settings: for pIC50: curve of first compound; for viability, T/C: stronger effect = lower value
Procedure, shortened: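 Tumor cells grown as multi-cell spheroids with HUVEC endothelial cells and MSC fibroblast-like stroma were treated with targeted agents combined with inavolisib, alpelisib, duvelisib or copanlisib. Doses fell in half-log steps from near clinical Cmax, else from 10 microM. Viability was measured.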

[1] = second compound 0.0316 µM, first compound 0.0316 µM
[2] = second compound 0.0316 µM, first compound 0.1 µM
[3] = second compound 0.0316 µM, first compound 0.316 µM
[4] = second compound 0.0316 µM, first compound 1 µM
[5] = second compound 0.0316 µM, first compound 3.16 µM
[6] = second compound 0.0316 µM, first compound 10 µM
[7] = second compound 0.1 µM, first compound 0.0316 µM
[8] = second compound 0.1 µM, first compound 0.1 µM
[9] = second compound 0.1 µM, first compound 0.316 µM
[10] = second compound 0.1 µM, first compound 1 µM
[11] = second compound 0.1 µM, first compound 3.16 µM
[12] = second compound 0.1 µM, first compound 10 µM
[13] = second compound 0.316 µM, first compound 0.0316 µM
[14] = second compound 0.316 µM, first compound 0.1 µM
[15] = second compound 0.316 µM, first compound 0.316 µM
[16] = second compound 0.316 µM, first compound 1 µM
[17] = second compound 0.316 µM, first compound 3.16 µM
[18] = second compound 0.316 µM, first compound 10 µM
[19] = second compound 1 µM, first compound 0.0316 µM
[20] = second compound 1 µM, first compound 0.1 µM
[21] = second compound 1 µM, first compound 0.316 µM
[22] = second compound 1 µM, first compound 1 µM
[23] = second compound 1 µM, first compound 3.16 µM
[24] = second compound 1 µM, first compound 10 µM
[25] = second compound 3.16 µM, first compound 0.0316 µM
[26] = second compound 3.16 µM, first compound 0.1 µM
[27] = second compound 3.16 µM, first compound 0.316 µM
[28] = second compound 3.16 µM, first compound 1 µM
[29] = second compound 3.16 µM, first compound 3.16 µM
[30] = second compound 3.16 µM, first compound 10 µM
[31] = second compound 10 µM, first compound 0.0316 µM
[32] = second compound 10 µM, first compound 0.1 µM
[33] = second compound 10 µM, first compound 0.316 µM
[34] = second compound 10 µM, first compound 1 µM
[35] = second compound 10 µM, first compound 3.16 µM
[36] = second compound 10 µM, first compound 10 µM
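Note: spheroids exposed to agents for 7 days before viability read.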
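Throughout, for viability, T/C: 100% = DMSO vehicle control viability.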

Work on C=CC(=O)N1CCN(c2nc(=O)n(-c3c(C)ccnc3C(C)C)c3nc(-c4c(O)cccc4F)c(F)cc23)C(C)C1 (stereo not drawn) + Cc1nc(NC(=O)N2CCCC2C(N)=O)sc1-c1ccnc(C(C)(C)C(F)(F)F)c1 yielded a pIC50 (second compound 0.0316 µM) of less than 5.00, a pIC50 (second compound 0.1 µM) of less than 5.00 and a pIC50 (second compound 0.316 µM) of less than 5.00. For the same compound, the pIC50 (second compound 1 µM) was less than 5.00, the pIC50 (second compound 3.16 µM) was less than 5.00 and the pIC50 (second compound 10 µM) was less than 5.00. For the same compound, the viability, T/C [1] was 106%, the viability, T/C [2] was 108% and the viability, T/C [3] was 102%. It also gave a viability, T/C [4] of 108%, a viability, T/C [5] of 110% and a viability, T/C [6] of 114%. The viability, T/C [7] was 108%, the viability, T/C [8] was 99.8% and the viability, T/C [9] was 103%. It also gave a viability, T/C [10] of 109%, a viability, T/C [11] of 114% and a viability, T/C [12] of 99%. The viability, T/C [13] was 103%, the viability, T/C [14] was 102% and the viability, T/C [15] was 100%. It also gave a viability, T/C [16] of 115%, a viability, T/C [17] of 105% and a viability, T/C [18] of 98.6%. For the same compound, the viability, T/C [19] was 126%, the viability, T/C [20] was 118% and the viability, T/C [21] was 102%. For the same compound, the viability, T/C [22] was 123%, the viability, T/C [23] was 122% and the viability, T/C [24] was 107%. It also gave a viability, T/C [25] of 110%, a viability, T/C [26] of 109% and a viability, T/C [27] of 112%. It also gave a viability, T/C [28] of 108%, a viability, T/C [29] of 113% and a viability, T/C [30] of 115%. The viability, T/C [31] was 71.1%, the viability, T/C [32] was 64.5% and the viability, T/C [33] was 58.3%. The viability, T/C [34] was 67.5%, the viability, T/C [35] was 90.8% and the viability, T/C [36] was 79.1%.
In the case of CC(Cn1ccc(-c2ccc(C#N)c(Cl)c2)n1)NC(=O)c1cc(C(C)O)[nH]n1 (stereo not drawn) + Cc1nc(NC(=O)N2CCCC2C(N)=O)sc1-c1ccnc(C(C)(C)C(F)(F)F)c1, the pIC50 (second compound 0.0316 µM) was less than 5.00, the pIC50 (second compound 0.1 µM) was less than 5.00 and the pIC50 (second compound 0.316 µM) was less than 5.00. For the same compound, the pIC50 (second compound 1 µM) was less than 5.00, the pIC50 (second compound 3.16 µM) was less than 5.00 and the pIC50 (second compound 10 µM) was less than 5.00. The viability, T/C [1] was 99.7%, the viability, T/C [2] was 104% and the viability, T/C [3] was 90.9%. For the same compound, the viability, T/C [4] was 93.4%, the viability, T/C [5] was 102% and the viability, T/C [6] was 92.7%. For the same compound, the viability, T/C [7] was 106%, the viability, T/C [8] was 101% and the viability, T/C [9] was 91.9%. The viability, T/C [10] was 109%, the viability, T/C [11] was 106% and the viability, T/C [12] was 96.9%. The viability, T/C [13] was 95.6%, the viability, T/C [14] was 102% and the viability, T/C [15] was 93.8%. The viability, T/C [16] was 108%, the viability, T/C [17] was 98.8% and the viability, T/C [18] was 88.1%. The viability, T/C [19] was 112%, the viability, T/C [20] was 109% and the viability, T/C [21] was 98.1%. For the same compound, the viability, T/C [22] was 112%, the viability, T/C [23] was 100% and the viability, T/C [24] was 98.8%. It also gave a viability, T/C [25] of 104%, a viability, T/C [26] of 102% and a viability, T/C [27] of 92.5%. For the same compound, the viability, T/C [28] was 91.7%, the viability, T/C [29] was 101% and the viability, T/C [30] was 104%. For the same compound, the viability, T/C [31] was 65.3%, the viability, T/C [32] was 58.1% and the viability, T/C [33] was 53.7%. For the same compound, the viability, T/C [34] was 60.2%, the viability, T/C [35] was 54.4% and the viability, T/C [36] was 63%.
Compound Cn1ncc(Cl)c1-c1cc(C(=O)NC(CN)Cc2cccc(F)c2)sc1Cl (stereo not drawn) + Cc1nc(NC(=O)N2CCCC2C(N)=O)sc1-c1ccnc(C(C)(C)C(F)(F)F)c1 has a pIC50 (second compound 0.0316 µM) of 5.39, a pIC50 (second compound 0.1 µM) of 5.53 and a pIC50 (second compound 0.316 µM) of 5.71. The pIC50 (second compound 1 µM) was 5.84, the pIC50 (second compound 3.16 µM) was 6.22 and the pIC50 (second compound 10 µM) was 6.88. The viability, T/C [1] was 86.1%, the viability, T/C [2] was 106% and the viability, T/C [3] was 96.3%. The viability, T/C [4] was 83%, the viability, T/C [5] was 54.6% and the viability, T/C [6] was 35.1%. For the same compound, the viability, T/C [7] was 110%, the viability, T/C [8] was 97.2% and the viability, T/C [9] was 93.5%. For the same compound, the viability, T/C [10] was 60.1%, the viability, T/C [11] was 53.7% and the viability, T/C [12] was 34.1%. It also gave a viability, T/C [13] of 114%, a viability, T/C [14] of 119% and a viability, T/C [15] of 94%. The viability, T/C [16] was 61.8%, the viability, T/C [17] was 44.6% and the viability, T/C [18] was 29.7%. It also gave a viability, T/C [19] of 109%, a viability, T/C [20] of 108% and a viability, T/C [21] of 82.4%. For the same compound, the viability, T/C [22] was 54%, the viability, T/C [23] was 39.8% and the viability, T/C [24] was 21.1%. The viability, T/C [25] was 107%, the viability, T/C [26] was 84% and the viability, T/C [27] was 53.2%. The viability, T/C [28] was 45%, the viability, T/C [29] was 32.7% and the viability, T/C [30] was 16.4%. The viability, T/C [31] was 60.6%, the viability, T/C [32] was 52.2% and the viability, T/C [33] was 40%. For the same compound, the viability, T/C [34] was 31.9%, the viability, T/C [35] was 28.4% and the viability, T/C [36] was 4.34%.
Cn1nccc1Nc1nccc(-c2ccn(C(CO)c3ccc(Cl)c(F)c3)c(=O)c2)n1 (stereo not drawn) + Cc1nc(NC(=O)N2CCCC2C(N)=O)sc1-c1ccnc(C(C)(C)C(F)(F)F)c1 gave a pIC50 (second compound 0.0316 µM) of less than 5.00, a pIC50 (second compound 0.1 µM) of less than 5.00 and a pIC50 (second compound 0.316 µM) of less than 5.00. The pIC50 (second compound 1 µM) was less than 5.00, the pIC50 (second compound 3.16 µM) was less than 5.00 and the pIC50 (second compound 10 µM) was less than 5.00. It also gave a viability, T/C [1] of 89.1%, a viability, T/C [2] of 111% and a viability, T/C [3] of 106%. For the same compound, the viability, T/C [4] was 119%, the viability, T/C [5] was 135% and the viability, T/C [6] was 133%. The viability, T/C [7] was 107%, the viability, T/C [8] was 109% and the viability, T/C [9] was 110%. It also gave a viability, T/C [10] of 116%, a viability, T/C [11] of 125% and a viability, T/C [12] of 118%. For the same compound, the viability, T/C [13] was 106%, the viability, T/C [14] was 114% and the viability, T/C [15] was 104%. For the same compound, the viability, T/C [16] was 117%, the viability, T/C [17] was 129% and the viability, T/C [18] was 138%. It also gave a viability, T/C [19] of 113%, a viability, T/C [20] of 112% and a viability, T/C [21] of 111%. It also gave a viability, T/C [22] of 119%, a viability, T/C [23] of 144% and a viability, T/C [24] of 136%. The viability, T/C [25] was 104%, the viability, T/C [26] was 101% and the viability, T/C [27] was 96.6%. For the same compound, the viability, T/C [28] was 121%, the viability, T/C [29] was 91.2% and the viability, T/C [30] was 90.1%. The viability, T/C [31] was 59.8%, the viability, T/C [32] was 61.7% and the viability, T/C [33] was 61%. The viability, T/C [34] was 54.8%, the viability, T/C [35] was 52.9% and the viability, T/C [36] was 52.9%.
